{"source": "patent US20250019387A1", "about": "(Frontier Medicines Corporation, priority 0001, published 2025)", "data": [{"target": "KRAS G12C and cRAF (Ras-binding domain) interaction (Homo sapiens (Human), UniProt P01116, C118S/C51S/C80L/G12C)", "sequence (P01116 other isoform, or with tags, fused parts or gaps G12C/C51S/C80L/C118S)": "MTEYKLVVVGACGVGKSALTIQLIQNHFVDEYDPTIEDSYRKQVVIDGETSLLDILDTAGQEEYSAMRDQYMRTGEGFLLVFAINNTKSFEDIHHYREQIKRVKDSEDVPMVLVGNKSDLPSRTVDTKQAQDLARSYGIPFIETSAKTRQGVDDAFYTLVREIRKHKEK", "test": "Inhibition of KRAS G12C and cRAF binding (AlphaScreen)", "conditions": "GMPPNP-loaded KRAS G12C, 19-20 hours incubation with compound; read-out: IC50 (Inhibition of KRAS G12C and cRAF Binding)", "how_it_was_run": "(§1)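 IC50 values come from 4-parameter nonlinear regression of AlphaScreen signal (680 nm excitation, 570 nm emission). Compound plates sat 19-20 h at room temperature before RBD and donor/acceptor beads were added in Hepes pH 7.4 buffer with 150 mM NaCl, 5 mM MgCl2, 2% DMSO for 60-90 min; biotin-AviTag-GST replaced RBD to flag assay-technology interferers.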", "units": {"IC50": "µM"}, "values": [{"smiles": "CN(CCNC(=O)/C=C/S(C)(=O)=O)c1nc(OC[C@@H]2CCCN2C)nc2c1CCN(c1cccc3cccc(Cl)c13)C2", "note": "[Example 23, (S,E)-N-(2-((7-(8-chloronaphthalen-1-yl)-2-((1-methylpyrrolidin-2-yl)methoxy)-5,6,7,8-tetrahydropyrido[3,4-d]pyrimidin-4-yl)(methyl)amino)ethyl)-3-(methylsulfonyl)acrylamide]", "IC50": "0.01 to 0.1"}, {"smiles": "C=CC(=O)N1CC[C@@H](N(CCC#N)c2nc(OC[C@@]34CCCN3C[C@H](F)C4)nc3c(F)c(-c4cccc5cccc(Cl)c45)ncc23)C1", "note": "[Example 264, 3-(((R)-1-acryloylpyrrolidin-3-yl)(7-(8-chloronaphthalen-1-yl)-8-fluoro-2-(((2R,7aS)-2-fluorohexahydro-1H-pyrrolizin-7a-yl)methoxy)pyrido[4,3-d]pyrimidin-4-yl)amino)propanenitrile]", "IC50": "0.1 to 0.5"}, {"smiles": "CN(c1nc(OC[C@@H]2CCCN2C)nc2c1CCN(c1cccc3cccc(Cl)c13)C2)C1CCN(C#N)C1", "note": "(stereo partly drawn) [Example 29, 3-((7-(8-chloronaphthalen-1-yl)-2-(((S)-1-methylpyrrolidin-2-yl)methoxy)-5,6,7,8-tetrahydropyrido[3,4-d]pyrimidin-4-yl)(methyl)amino)pyrrolidine-1-carbonitrile]", "IC50": "0.1 to 0.5"}, {"smiles": "CN(c1nc(OCC23CCCN2CCC3)nc2c(F)c(-c3cccc4cccc(Cl)c34)ncc12)[C@@H]1CCN(C(=O)/C=C/c2nc(C3(C)CC3)no2)C1", "note": "[Example 101, (R,E)-1-(3-((7-(8-chloronaphthalen-1-yl)-8-fluoro-2-((hexahydro-1H-pyrrolizin-7a-yl)methoxy)pyrido[4,3-d]pyrimidin-4-yl)(methyl)amino)pyrrolidin-1-yl)-3-(3-(1-methylcyclopropyl)-1,2,4-oxadiazol-5-yl)prop-2-en-1-one]", "IC50": "< 0.01"}, {"smiles": "C=CC(=O)N1CC[C@@H](Nc2nc(OC[C@@]34CCCN3C[C@H](F)C4)nc3c(F)c(-c4cccc5cccc(Cl)c45)ncc23)[C@H]1C", "note": "[Example 190, 1-((2R,3R)-3-((7-(8-chloronaphthalen-1-yl)-8-fluoro-2-(((2R,7aS)-2-fluorotetrahydro-1H-pyrrolizin-7a(5H)-yl)methoxy)pyrido[4,3-d]pyrimidin-4-yl)amino)-2-methylpyrrolidin-1-yl)prop-2-en-1-one]", "IC50": "0.1 to 0.5"}, {"smiles": "C[C@@H](F)c1noc(/C=C/C(=O)N2CC(CN(C)c3nc(OC[C@@]45CCCN4C[C@H](F)C5)nc4c(F)c(-c5cccc6cccc(Cl)c56)ncc34)C2)n1", "note": "[Example 83, (E)-1-(3-(((7-(8-chloronaphthalen-1-yl)-8-fluoro-2-(((2R,7aS)-2-fluorotetrahydro-1H-pyrrolizin-7a(5H)-yl)methoxy)pyrido[4,3-d]pyrimidin-4-yl)(methyl)amino)methyl)azetidin-1-yl)-3-(3-((R)-1-fluoroethyl)-1,2,4-oxadiazol-5-yl)prop-2-en-1-one]", "IC50": "< 0.01"}, {"smiles": "Cc1cc(/C=C/C(=O)N2CC(CN(C)c3nc(OC[C@@]45CCCN4C[C@H](F)C5)nc4c(F)c(-c5cccc6cccc(Cl)c56)ncc34)C2)nc(C)n1", "note": "[Example 275, (E)-1-(3-(((7-(8-chloronaphthalen-1-yl)-8-fluoro-2-(((2R,7aS)-2-fluorohexahydro-1H-pyrrolizin-7a-yl)methoxy)pyrido[4,3-d]pyrimidin-4-yl)(methyl)amino)methyl)azetidin-1-yl)-3-(2,6-dimethylpyrimidin-4-yl)prop-2-en-1-one]", "IC50": "0.1 to 0.5"}, {"smiles": "C=CC(=O)N1CC[C@@H](N(C)c2nc(OC[C@@]34CCCN3C[C@H](F)C4)nc3c(F)c(-c4cccc5ccc(F)c(CC)c45)ncc23)C1", "note": "[Example 185, 1-((R)-3-((7-(8-ethyl-7-fluoronaphthalen-1-yl)-8-fluoro-2-(((2R,7aS)-2-fluorotetrahydro-1H-pyrrolizin-7a(5H)-yl)methoxy)pyrido[4,3-d]pyrimidin-4-yl)(methyl)amino)pyrrolidin-1-yl)prop-2-en-1-one]", "IC50": "0.1 to 0.5"}, {"smiles": "CN1CCC[C@H]1COc1nc2c(c(N(C)[C@H]3CCN(C(=O)/C=C/S(C)(=O)=O)C3)n1)CCN(c1cccc3cccc(Cl)c13)C2", "note": "[Example 15, (E)-1-((S)-3-((7-(8-chloronaphthalen-1-yl)-2-(((S)-1-methylpyrrolidin-2-yl)methoxy)-5,6,7,8-tetrahydropyrido[3,4-d]pyrimidin-4-yl)(methyl)amino)pyrrolidin-1-yl)-3-(methylsulfonyl)prop-2-en-1-one]", "IC50": "< 0.01"}, {"smiles": "C=CC(=O)N1CC[C@@H](N(C)c2nc(OCC34CCCN3CCC4)nc3c2CCN(c2cccc4cccc(Cl)c24)C3)C1", "note": "[Example 19, (R)-1-(3-((7-(8-chloronaphthalen-1-yl)-2-((tetrahydro-1H-pyrrolizin-7a(5H)-yl)methoxy)-5,6,7,8-tetrahydropyrido[3,4-d]pyrimidin-4-yl)(methyl)amino)pyrrolidin-1-yl)prop-2-en-1-one]", "IC50": "0.01 to 0.1"}, {"smiles": "C=CC(=O)N1CC[C@@H](N(C)c2nc(OC[C@@]34CCCN3C[C@H](F)C4)nc3c(F)c(-c4cccc5ccc(F)c(C)c45)ncc23)C1", "note": "[Example 195, 1-((R)-3-((8-fluoro-7-(7-fluoro-8-methylnaphthalen-1-yl)-2-(((2R,7aS)-2-fluorotetrahydro-1H-pyrrolizin-7a(5H)-yl)methoxy)pyrido[4,3-d]pyrimidin-4-yl)(methyl)amino)pyrrolidin-1-yl)prop-2-en-1-one]", "IC50": "0.01 to 0.1"}, {"smiles": "CN(CC1CN(C(=O)/C=C/[C@H]2CCN2C)C1)c1nc(OC[C@@]23CCCN2C[C@H](F)C3)nc2c(F)c(-c3cccc4cccc(Cl)c34)ncc12", "note": "[Example 219, (E)-1-(3-(((7-(8-chloronaphthalen-1-yl)-8-fluoro-2-(((2R,7aS)-2-fluorotetrahydro-1H-pyrrolizin-7a(5H)-yl)methoxy)pyrido[4,3-d]pyrimidin-4-yl)(methyl)amino)methyl)azetidin-1-yl)-3-((R)-1-methylazetidin-2-yl)prop-2-en-1-one]", "IC50": "0.01 to 0.1"}, {"smiles": "C=CS(=O)(=O)CCN(C)c1nc(OC[C@@H]2CCCN2C)nc2c1CCN(c1cccc3cccc(Cl)c13)C2", "note": "[Example 47, (S)-7-(8-chloronaphthalen-1-yl)-N-methyl-2-((1-methylpyrrolidin-2-yl)methoxy)-N-(2-(vinylsulfonyl)ethyl)-5,6,7,8-tetrahydropyrido[3,4-d]pyrimidin-4-amine]", "IC50": "0.01 to 0.1"}, {"smiles": "CN(c1nc(OCC23CCCN2CCC3)nc2c(F)c(-c3cccc4cccc(Cl)c34)ncc12)[C@@H]1CCN(C(=O)/C=C/c2nc(C(F)(F)F)no2)C1", "note": "[Example 100, (R,E)-1-(3-((7-(8-chloronaphthalen-1-yl)-8-fluoro-2-((tetrahydro-1H-pyrrolizin-7a(5H)-yl)methoxy)pyrido[4,3-d]pyrimidin-4-yl)(methyl)amino)pyrrolidin-1-yl)-3-(3-(trifluoromethyl)-1,2,4-oxadiazol-5-yl)prop-2-en-1-one]", "IC50": "< 0.01"}, {"smiles": "COC(=O)/C=C/C(=O)N1CCC(N(C)c2nc(OC[C@@H]3CCCN3C)nc3c2CCN(c2cccc4ccc(F)c(Cl)c24)C3)C1", "note": "(stereo partly drawn) [Example 2, methyl(E)-4-(3-((7-(8-chloro-7-fluoronaphthalen-1-yl)-2-(((S)-1-methylpyrrolidin-2-yl)methoxy)-5,6,7,8-tetrahydropyrido[3,4-d]pyrimidin-4-yl)(methyl)amino)pyrrolidin-1-yl)-4-oxobut-2-enoate]", "IC50": "0.01 to 0.1"}, {"smiles": "CN(CC1CN(C#N)C1)c1nc(OCC23CCCN2CCC3)nc2c(F)c(-c3cccc4cccc(Cl)c34)ncc12", "note": "[Example 28, 3-(((7-(8-chloronaphthalen-1-yl)-8-fluoro-2-((tetrahydro-1H-pyrrolizin-7a(5H)-yl)methoxy)pyrido[4,3-d]pyrimidin-4-yl)(methyl)amino)methyl)azetidine-1-carbonitrile]", "IC50": "0.01 to 0.1"}]}, {"target": "KRAS G12C and cRAF (Ras-binding domain) interaction (Homo sapiens (Human), UniProt P01116, C118S/C51S/C80L/G12C)", "test": "Inhibition of KRAS G12C and cRAF binding (AlphaScreen)", "conditions": "additional exemplary compounds; KRAS G12C and cRAF binding; read-out: RAF1 RBD IC50", "how_it_was_run": "as §1", "units": {"IC50": "µM"}, "values": [{"smiles": "CN(c1nc(OCC23CCCN2CCC3)nc2c(F)c(-c3cccc4cccc(Cl)c34)ncc12)[C@@H]1CCN(C(=O)/C=C/c2cn(C)nn2)C1", "IC50": "> 0.5"}, {"smiles": "CN(c1nc(OCC23CCCN2CCC3)nc2c(F)c(-c3cccc4ccc(F)c(Cl)c34)ncc12)[C@@H]1CCN(C#N)C1", "IC50": "0.01 to 0.1"}, {"smiles": "C=CC(=O)N1CC[C@@H](N(C)c2nc(OC[C@]34CCCN3C[C@H](F)C4)nc3c2CCN(c2cccc4cccc(Cl)c24)C3)C1", "IC50": "> 0.5"}, {"smiles": "CN(c1nc(OC[C@@]23CCCN2C[C@H](F)C3)nc2c1CCN(c1cccc3cccc(Cl)c13)C2)[C@@H]1CCN(C(=O)/C=C/c2ccncn2)C1", "IC50": "> 0.5"}, {"smiles": "C=CC(=O)N1CC(CN(C)c2nc(OC[C@]34CCCN3C[C@@H](F)C4)nc3c(F)c(-c4cccc5cccc(Cl)c45)ncc23)C1", "IC50": "0.1 to 0.5"}, {"smiles": "CN(C)C/C=C/C(=O)N1CC[C@@H](N(C)c2nc(OC[C@@H]3CCCN3C)nc3c(F)c(-c4cccc5ccc(F)c(Cl)c45)ncc23)C1", "IC50": "0.01 to 0.1"}, {"smiles": "C=CC(=O)N1C[C@H](N(C)c2nc(OC[C@@]34CCCN3C[C@H](F)C4)nc3c2CCN(c2cccc4cccc(Cl)c24)C3)C[C@H]1CC#N", "IC50": "0.1 to 0.5"}, {"smiles": "C=CC(=O)N1CC[C@@H]1CN(C)c1nc(OC[C@@]23CCCN2C[C@H](F)C3)nc2c1CCN(c1cccc3cccc(Cl)c13)C2", "IC50": "> 0.5"}, {"smiles": "C=CC(=O)N1CC[C@@H](N(C)c2nc(OC[C@]34CCCN3C[C@H](F)C4)nc3c(F)c(-c4cccc5cccc(Cl)c45)ncc23)C1", "IC50": "0.1 to 0.5"}, {"smiles": "C=CC(=O)N1C[C@@H](C)[C@@H](N(C)c2nc(OC[C@@]34CCCN3C[C@H](F)C4)nc3c(F)c(-c4cccc5cccc(Cl)c45)ncc23)C1", "IC50": "> 0.5"}, {"smiles": "C=CC(=O)[C@H](C)CN(C)c1nc(OC[C@@H]2CCCN2C)nc2c1CCN(c1cccc3ccccc13)C2", "IC50": "> 0.5"}, {"smiles": "C=CC(=O)N1C[C@H](N(C)c2nc(OCC34CCCN3CCC4)nc3c2CCN(c2cccc4cccc(Cl)c24)C3)C[C@H]1C#N", "IC50": "0.01 to 0.1"}, {"smiles": "C=CC(=O)N1CCC(N(c2nc(OC[C@@]34CCCN3C[C@H](F)C4)nc3c(F)c(-c4cccc5cccc(Cl)c45)ncc23)C2CC2)C1", "note": "(some centres unmarked)", "IC50": "> 0.5"}]}]}
